Data on one compound can be found in patent US3954726A, “Double salts of S-adenosil-L-methionine” (Bioresearch Limited, priority 1973, dated 1976).

The conditions of data set [1]: rat, in vivo, 10 mg/kg. Here is the method: (§1) Sam^+.hso4^-.h2 so4 .2 ch3 c6 h4 so3 h and/or SAM^+.HSO4^-.H2 SO4.CH3 C6 H4 SO3 H. In order to indicatively determine how SAM is distributed in the tissues, S-Adenosilmethionine (Methyl C^14) was prepared. The distribution of this product in rats was studied by administering a dose of 10 mg/kg/e.v. equal to 24 μci of radioactive product. The specific activity of the product was 58 mCi/m moles. Parallel to this, an autoradiographic study was made on the mouse.
Distribution of SAM in some rat tissues.
The values are expressed as μgr/gr.

The conditions of data set [2]: mouse, in vivo. The procedure:
as §1

The structures appear in SMILES notation. Where two headings read alike, the source gives them in different places.

Regarding `C[S+](CC[C@H](N)C(=O)O)C[C@H]1O[C@@H](n2cnc3c(N)ncnc32)[C@H](O)[C@@H]1O` (some centres unmarked) [SAM, SAM disulphate di-p-toluenesulphonate], the “distribution to the tissues” value in data set [1] and in data set [2] was “distributed very rapidly to all the tissues” in each case.
